As a reminder, the Ki is the dissociation constant of the complex between target and ligand, obtained from inhibition or displacement.

Each structure is given as a SMILES string. Active and inactive are the calls of the source. The calls are words filed in the database; no cut-off is given here. Where a SMILES comes first, the peptide text is derived from it. The star is where a group is joined. CH2Cl = ClC*

This passage reports Ki and inhibition results from ChEMBL document CHEMBL2086329, “Design and synthesis of potent, selective inhibitors of matriptase” (ACS Med Chem Lett, 2012).

In experiment [1] the target is T1, Suppressor of tumorigenicity 14 protein (Homo sapiens, UniProt Q9Y5Y6).
T1 sequence (Q9Y5Y6 whole entry): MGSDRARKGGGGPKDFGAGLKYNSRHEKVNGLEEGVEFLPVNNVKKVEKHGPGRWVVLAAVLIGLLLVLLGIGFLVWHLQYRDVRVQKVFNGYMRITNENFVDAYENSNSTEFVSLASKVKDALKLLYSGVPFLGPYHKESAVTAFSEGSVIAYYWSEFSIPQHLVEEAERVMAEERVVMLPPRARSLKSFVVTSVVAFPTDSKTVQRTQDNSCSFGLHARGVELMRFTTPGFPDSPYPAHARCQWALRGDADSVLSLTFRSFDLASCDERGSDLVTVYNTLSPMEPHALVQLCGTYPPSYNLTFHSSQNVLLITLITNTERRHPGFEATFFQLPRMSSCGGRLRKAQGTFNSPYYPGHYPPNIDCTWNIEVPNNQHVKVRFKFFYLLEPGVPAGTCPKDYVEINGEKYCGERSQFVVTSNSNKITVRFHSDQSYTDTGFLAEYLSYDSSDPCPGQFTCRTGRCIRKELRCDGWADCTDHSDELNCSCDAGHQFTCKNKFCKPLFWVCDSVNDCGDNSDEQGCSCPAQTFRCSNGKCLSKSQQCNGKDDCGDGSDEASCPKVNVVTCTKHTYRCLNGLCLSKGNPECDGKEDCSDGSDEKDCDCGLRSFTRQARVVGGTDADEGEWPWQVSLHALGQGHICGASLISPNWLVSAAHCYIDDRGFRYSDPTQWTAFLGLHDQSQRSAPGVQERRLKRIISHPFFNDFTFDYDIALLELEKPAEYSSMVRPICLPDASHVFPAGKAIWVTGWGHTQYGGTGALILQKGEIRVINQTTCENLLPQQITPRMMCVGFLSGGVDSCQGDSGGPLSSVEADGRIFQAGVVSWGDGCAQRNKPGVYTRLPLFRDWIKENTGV
The experiment can be described thus: Mixed inhibition of human matriptase expressed in Drosophila melanogaster S2 cells using Boc-QAR-AMC as substrate by fluorimetric analysis.

The target in a further experiment is Furin (Homo sapiens) (UniProt P09958). The experiment can be described thus: Inhibition of human furin expressed in Drosophila melanogaster S2 cells using Boc-RRVR-AMC as substrate at 10 uM.
For experiment [2], the target named is T2, Transmembrane protease serine 6 (Homo sapiens, UniProt Q8IU80).
T2 sequence (Q8IU80 whole entry): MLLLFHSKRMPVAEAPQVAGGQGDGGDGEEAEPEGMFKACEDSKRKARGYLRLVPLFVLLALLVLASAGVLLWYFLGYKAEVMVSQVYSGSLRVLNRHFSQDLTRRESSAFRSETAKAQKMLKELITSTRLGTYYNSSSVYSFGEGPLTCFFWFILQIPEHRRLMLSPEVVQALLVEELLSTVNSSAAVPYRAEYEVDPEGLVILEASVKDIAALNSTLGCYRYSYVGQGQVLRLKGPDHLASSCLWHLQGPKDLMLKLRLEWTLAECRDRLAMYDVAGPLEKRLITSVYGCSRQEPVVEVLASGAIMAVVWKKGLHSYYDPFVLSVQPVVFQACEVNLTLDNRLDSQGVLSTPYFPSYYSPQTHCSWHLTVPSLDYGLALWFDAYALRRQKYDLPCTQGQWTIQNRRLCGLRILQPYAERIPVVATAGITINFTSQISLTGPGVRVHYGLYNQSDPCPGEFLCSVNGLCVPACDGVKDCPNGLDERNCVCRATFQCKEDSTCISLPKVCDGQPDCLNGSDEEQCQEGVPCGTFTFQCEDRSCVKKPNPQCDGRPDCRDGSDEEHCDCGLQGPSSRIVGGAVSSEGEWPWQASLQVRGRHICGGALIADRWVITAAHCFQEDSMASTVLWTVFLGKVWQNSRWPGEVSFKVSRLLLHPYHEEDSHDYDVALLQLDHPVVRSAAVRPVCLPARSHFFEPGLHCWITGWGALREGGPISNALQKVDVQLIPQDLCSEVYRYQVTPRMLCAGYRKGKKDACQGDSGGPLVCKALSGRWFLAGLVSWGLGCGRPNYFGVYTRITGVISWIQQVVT
The experiment can be described thus: Tight binding inhibition of human matriptase2 expressed in Drosophila melanogaster S2 cells using Boc-QAR-AMC as substrate incubated for 15 mins prior to substrate addition measured for 30 mins by fluorimetric analysis.

Experiment [3] concerns the target T3, Suppressor of tumorigenicity 14 protein (Homo sapiens) (UniProt Q9Y5Y6).
T3 sequence (whole entry): T1 sequence (Q9Y5Y6 whole entry)
Conditions: S2, 2.5 nM.
Description: Inhibition of human matriptase expressed in Drosophila melanogaster S2 cells using Boc-QAR-AMC as substrate at 2.5 nM by fluorimetric analysis

Experiment [4] has as its target T4, Transmembrane protease serine 11D (Homo sapiens, UniProt O60235).
T4 sequence (O60235 whole entry): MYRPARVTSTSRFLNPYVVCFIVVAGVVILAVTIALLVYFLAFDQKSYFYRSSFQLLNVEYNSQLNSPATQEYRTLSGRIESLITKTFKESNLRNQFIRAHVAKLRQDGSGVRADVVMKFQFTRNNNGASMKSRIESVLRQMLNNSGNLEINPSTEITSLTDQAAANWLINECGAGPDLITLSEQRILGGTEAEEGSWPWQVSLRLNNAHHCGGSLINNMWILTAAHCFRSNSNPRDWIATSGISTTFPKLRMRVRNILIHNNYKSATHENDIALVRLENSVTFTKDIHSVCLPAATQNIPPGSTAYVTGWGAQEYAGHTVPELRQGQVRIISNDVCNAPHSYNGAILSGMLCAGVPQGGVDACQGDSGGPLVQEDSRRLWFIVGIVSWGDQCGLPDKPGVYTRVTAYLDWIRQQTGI
Description: Tight binding inhibition of human TMPRSS11D expressed in Drosophila melanogaster S2 cells using Boc-QAR-AMC as substrate incubated for 15 mins prior to substrate addition measured for 30 mins by fluorimetric analysis.

The next experiment deals with Prothrombin (Homo sapiens, UniProt P00734). The experiment can be described thus: Mixed inhibition of human thrombin expressed in Drosophila melanogaster S2 cells using Boc-QAR-AMC as substrate by fluorimetric analysis.
In a further experiment the target is Trypsin (Homo sapiens, UniProt P07477+P07478+P35030). Description: Tight binding inhibition of human trypsin expressed in Drosophila melanogaster S2 cells using Boc-QAR-AMC as substrate incubated for 15 mins prior to substrate addition measured for 30 mins by fluorimetric analysis.
Experiment [5] deals with T3, Suppressor of tumorigenicity 14 protein (Homo sapiens). Description: Irreversible inhibition of human matriptase expressed in Drosophila melanogaster S2 cells using Boc-QAR-AMC as substrate incubated for 20 mins prior to substrate addition measured for 75 mins by fluorimetric analysis.
Experiment [6] has as its target T1, Suppressor of tumorigenicity 14 protein. Description: Tight binding inhibition of human matriptase expressed in Drosophila melanogaster S2 cells using Boc-QAR-AMC as substrate incubated for 15 mins prior to substrate addition measured for 30 mins by fluorimetric analysis.

Furin (Homo sapiens), sequence (P09958 whole entry): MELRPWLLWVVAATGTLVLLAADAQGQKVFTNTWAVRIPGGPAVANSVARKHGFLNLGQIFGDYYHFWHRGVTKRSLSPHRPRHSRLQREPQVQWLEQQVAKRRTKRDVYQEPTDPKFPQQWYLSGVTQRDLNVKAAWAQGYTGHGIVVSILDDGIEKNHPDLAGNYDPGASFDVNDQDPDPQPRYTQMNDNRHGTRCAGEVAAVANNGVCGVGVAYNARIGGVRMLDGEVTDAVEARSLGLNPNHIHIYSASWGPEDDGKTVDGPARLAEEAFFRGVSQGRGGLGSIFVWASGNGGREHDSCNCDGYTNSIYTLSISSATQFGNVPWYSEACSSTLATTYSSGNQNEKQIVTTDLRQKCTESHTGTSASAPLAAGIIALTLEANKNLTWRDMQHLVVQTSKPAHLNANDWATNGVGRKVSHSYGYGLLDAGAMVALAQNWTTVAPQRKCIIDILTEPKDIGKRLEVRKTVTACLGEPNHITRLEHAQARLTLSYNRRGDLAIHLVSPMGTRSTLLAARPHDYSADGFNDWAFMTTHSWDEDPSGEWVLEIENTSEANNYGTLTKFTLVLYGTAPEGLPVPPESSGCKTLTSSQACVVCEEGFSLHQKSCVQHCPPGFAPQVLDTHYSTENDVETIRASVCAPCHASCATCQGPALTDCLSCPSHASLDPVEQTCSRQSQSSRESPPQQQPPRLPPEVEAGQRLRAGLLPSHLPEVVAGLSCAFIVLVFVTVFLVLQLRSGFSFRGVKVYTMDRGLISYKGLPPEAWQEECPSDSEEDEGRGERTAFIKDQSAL

For `N=C(N)NCCC[C@H](N)C(=O)c1nc2ccccc2s1`, the inhibition constant (Ki) in [1] was 457 nM.

Turning to `C[C@H](NC(=O)[C@H](CCC(N)=O)NC(=O)[C@@H](N)CCCNC(=N)N)C(=O)N[C@@H](CCCNC(=N)N)C(O)c1nc2ccccc2s1` (mixture of isomers), affinity in [1] was put at a Ki of 6120 nM. This Ki is about 13-fold higher than that of the compound before.

On to `C[C@H](NC(=O)[C@H](CCC(N)=O)NC(=O)[C@@H](N)CCCNC(=N)N)C(=O)N[C@@H](CCCNC(=N)N)C(=O)c1nc2ccccc2s1`, for which, at Furin (Homo sapiens), the inhibition entry was “inactive”. Besides, the inhibition constant Ki in experiment [2] amounted to 3.3 nM; in [4] it was 8.4 nM; at Prothrombin, 637 nM; at Trypsin, 0.97 nM. For the same compound, the inhibition result in [3] is “Active”.

With `N=C(N)NCCC[C@H](NC(=O)CNC(=O)[C@@H](N)CCC(=O)O)C(=O)CCl` (H-Glu-Gly-Arg-CH2Cl), the inhibition entry in experiment [5] is “Active”.

In the case of `C[C@H](N)C(=O)N[C@@H](CCCN=C(N)N)C(=O)c1nc2ccccc2s1`, affinity in experiment [6] was put at a Ki of 1.4 nM.
